The test relates to BDF1 mice, P388 leukemia ip, median survival T/C. The test can be described thus: NCI In Vivo Anticancer Drug Screen. Data for tumor model P388 Leukemia (intraperitoneal) in B6D2F1 (BDF1) mice. The settings on record: endpoint: median survival time, higher = longer survival. A digest of the protocol: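 Compound-treated tumour-bearing mice were compared with vehicle-treated controls. Survival was recorded, and the value is the treated-group measurement divided by the control-group measurement (T/C).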

Where [1] appears, read: dose: 100.0 mg/kg/injection, schedule: Q04DX003 (ip), vehicle: Klucel (hydroxypropylcellulose) (HPC).
The mark [2] stands for this setting: dose: 200.0 mg/kg/injection, schedule: Q04DX003 (ip), vehicle: Klucel (hydroxypropylcellulose) (HPC).
The mark [3] stands for this setting: dose: 50.0 mg/kg/injection, schedule: Q04DX003 (ip), vehicle: saline with Tween-80.
Setting [4] is: dose: 400.0 mg/kg/injection, schedule: Q04DX003 (ip), vehicle: Klucel (hydroxypropylcellulose) (HPC).
[5] abbreviates: dose: 50.0 mg/kg/injection, schedule: Q01DX009 (ip), vehicle: saline.
[6] abbreviates: dose: 100.0 mg/kg/injection, schedule: Q01DX009 (ip), vehicle: saline.
The mark [7] stands for this setting: dose: 50.0 mg/kg/injection, schedule: Q01DX009 (ip), vehicle: saline with Tween-80.
Setting [8] is: dose: 100.0 mg/kg/injection, schedule: Q01DX009 (ip), vehicle: saline with Tween-80.
Where [9] appears, read: dose: 200.0 mg/kg/injection, schedule: Q01DX009 (ip), vehicle: saline with Tween-80.
The mark [10] stands for this setting: dose: 25.0 mg/kg/injection, schedule: Q01DX009 (ip), vehicle: saline with Tween-80.
Where [11] appears, read: dose: 100.0 mg/kg/injection, schedule: Q04DX003 (ip), vehicle: saline with Tween-80.
The mark [12] stands for this setting: dose: 200.0 mg/kg/injection, schedule: Q04DX003 (ip), vehicle: saline with Tween-80.
Where [13] appears, read: dose: 400.0 mg/kg/injection, schedule: Q04DX003 (ip), vehicle: saline with Tween-80.
Setting [14] is: dose: 25.0 mg/kg/injection, schedule: Q04DX003 (ip), vehicle: saline with Tween-80.

From PubChem BioAssay AID328 (DTP/NCI, 2004) come the findings set out here.

Values joined by “and” are separate entries in the source; they are usually repeats but may differ in a detail not shown here. Equal values may be shown once. Inconclusive results and toxic doses are left out.

Regarding `COc1cc(C(=O)c2cocc2C(=O)c2ccc3c(c2)OCO3)cc(OC)c1OC`, the T/C (dose: 25.0 mg/kg/injection, schedule: Q01DX010 (ip), vehicle: saline) was 108 % of control; the T/C (dose: 50.0 mg/kg/injection, schedule: Q01DX010 (ip), vehicle: other) was 123 % of control; the T/C (dose: 50.0 mg/kg/injection, schedule: Q01DX010 (ip), vehicle: saline) was 91 % of control; the T/C (dose: 50.0 mg/kg/injection, schedule: Q01DX010 (ip), vehicle: water) was 100 % of control; the T/C (dose: 100.0 mg/kg/injection, schedule: Q01DX010 (ip), vehicle: other) was 180 % of control; the T/C (dose: 100.0 mg/kg/injection, schedule: Q01DX010 (ip), vehicle: saline) was 86 % of control and 100 % of control. Moreover, the T/C (dose: 100.0 mg/kg/injection, schedule: Q01DX010 (ip), vehicle: water) is 111 % of control; the T/C (dose: 200.0 mg/kg/injection, schedule: Q01DX010 (ip), vehicle: other) was 165 % of control; the T/C (dose: 200.0 mg/kg/injection, schedule: Q01DX010 (ip), vehicle: saline) was 90 % of control; the T/C (dose: 200.0 mg/kg/injection, schedule: Q01DX010 (ip), vehicle: water) is 155 % of control; the T/C (dose: 400.0 mg/kg/injection, schedule: Q01DX010 (ip), vehicle: other) is 173 % of control.
As for `COc1cc(OC)c(N=Cc2ccc3c(c2)OCO3)cc1Cl`, the T/C is 100 % of control under setting [1] and 100 % of control under setting [2].
Consider `C/C(=N/N)c1ccc(Br)cc1`, for which the T/C was 103 % of control (dose: 3.0 mg/kg/injection, schedule: Q01DX009 (ip), vehicle: saline with Tween-80); 92 % of control (dose: 6.0 mg/kg/injection, schedule: Q01DX009 (ip), vehicle: saline with Tween-80); 118 % of control (dose: 22.0 mg/kg/injection, schedule: Q04DX003 (ip), vehicle: saline with Tween-80); 118 % of control and 122 % of control (dose: 34.0 mg/kg/injection, schedule: Q04DX003 (ip), vehicle: saline with Tween-80); 122 % of control under setting [3].
Turning to `O=C(Nc1ccccc1)Oc1ccc(Cl)cc1`, the T/C by setting is: under setting [1], 104 % of control; under setting [2], 95 % of control; under setting [4], 109 % of control.
Turning to `COC(=O)C1CSC2(CCCN(Cc3ccccc3)C2)N1` (stereo not given), the T/C under setting [5] was 113 % of control; the T/C under setting [6] was 119 % of control; the T/C (dose: 200.0 mg/kg/injection, schedule: Q01DX009 (ip), vehicle: saline) was 96 % of control.
In the case of `O=C(CNC(=O)Nc1n[nH]c(=S)s1)N/N=C/c1ccc2c(c1)OCO2`, the T/C by setting is: under setting [7], 116 % of control; under setting [8], 100 % of control; under setting [9], 98 % of control.
Consider `C=C1CC(OC(=O)c2ccc([N+](=O)[O-])cc2)C1`, for which the T/C runs as follows: under setting [7], 111 % of control; under setting [8], 111 % of control; under setting [9], 90 % of control.
Turning to `CN1C(=O)C(Br)=C(c2cccs2)C1=O`, the T/C was 109 % of control (dose: 25.0 mg/kg/injection, schedule: Q01DX001 (ip), vehicle: saline with Tween-80) and 103 % of control (dose: 50.0 mg/kg/injection, schedule: Q01DX001 (ip), vehicle: saline with Tween-80).
In the case of `O=C1C=C2SCCN2C(=O)C1`, the T/C reads like this: under setting [10], 99 % of control; under setting [7], 99 % of control and 109 % of control; under setting [8], 97 % of control and 124 % of control; under setting [9], 105 % of control and 114 % of control.
Take `NC(CCC(=O)c1ccccn1)C(=O)O` (stereo not given): the T/C (dose: 12.5 mg/kg/injection, schedule: Q01DX009 (ip), vehicle: saline) was 103 % of control; the T/C (dose: 25.0 mg/kg/injection, schedule: Q01DX009 (ip), vehicle: saline) was 117 % of control; the T/C under setting [5] was 98 % of control; the T/C under setting [6] is 117 % of control.
For the molecule `O=C(NC(=O)c1c(F)cccc1F)Nc1ncc(Br)cc1Br`, the T/C under setting [10] was 90 % of control, the T/C under setting [7] is 97 % of control and the T/C under setting [8] is 96 % of control.
For the molecule `O=C(c1ccccc1Cl)n1c(Cl)c(/C=N\Nc2cccc([N+](=O)[O-])c2)c2ccccc21`, the T/C runs as follows: (dose: 100.0 mg/kg/injection, schedule: Q04DX002 (ip), vehicle: Klucel (hydroxypropylcellulose) (HPC)) 90 % of control; (dose: 200.0 mg/kg/injection, schedule: Q04DX002 (ip), vehicle: Klucel (hydroxypropylcellulose) (HPC)) 89 % of control; (dose: 400.0 mg/kg/injection, schedule: Q04DX002 (ip), vehicle: Klucel (hydroxypropylcellulose) (HPC)) 90 % of control.
`COc1ccccc1NC(=O)Nc1ccc(N(C)C)cc1`: the T/C by setting is: under setting [11], 90 % of control; under setting [12], 118 % of control; under setting [13], 90 % of control.
In the case of `CCOC(=O)CCN(CCCN(C)C)c1cc(O)c2c(c1O)C(=O)c1ccccc1C2=O`, the T/C runs as follows: (dose: 50.0 mg/kg/injection, schedule: Q01DX005 (ip), vehicle: saline with Tween-80) 89 % of control; (dose: 100.0 mg/kg/injection, schedule: Q01DX005 (ip), vehicle: saline with Tween-80) 103 % of control; (dose: 200.0 mg/kg/injection, schedule: Q01DX005 (ip), vehicle: saline with Tween-80) 108 % of control.
In the case of `CCCNC1(C(N)=O)CCN(Cc2ccccc2)CC1`, the T/C reads like this: under setting [10], 107 % of control; under setting [14], 104 % of control; under setting [7], 111 % of control; under setting [3], 86 % of control; under setting [8], 96 % of control; under setting [11], 95 % of control.
Regarding `CNc1nc(N)nc(Nc2ccc(I)cc2)c1N=O`, the T/C was 90 % of control and 100 % of control under setting [8]; 95 % of control under setting [11]; 90 % of control and 91 % of control under setting [9]; 112 % of control under setting [12]; 87 % of control (dose: 400.0 mg/kg/injection, schedule: Q01DX009 (ip), vehicle: saline with Tween-80); 91 % of control under setting [13].
In the case of `O=[N+]([O-])c1ccc(S(=O)(=O)OCc2ccccc2OS(=O)(=O)c2ccc([N+](=O)[O-])cc2)cc1`, the T/C under setting [10] was 109 % of control; the T/C (dose: 25.0 mg/kg/injection, schedule: Q04DX003 (ip), vehicle: Klucel (hydroxypropylcellulose) (HPC)) is 110 % of control; the T/C under setting [7] is 114 % of control; the T/C (dose: 50.0 mg/kg/injection, schedule: Q04DX003 (ip), vehicle: Klucel (hydroxypropylcellulose) (HPC)) was 100 % of control; the T/C under setting [8] is 114 % of control; the T/C under setting [1] was 95 % of control.
On to `O=C(Cc1ccccc1)OCCc1ccccc1`, for which the T/C is 109 % of control (dose: 12.5 mg/kg/injection, schedule: Q01DX009 (ip), vehicle: Klucel (hydroxypropylcellulose) (HPC)); 109 % of control (dose: 25.0 mg/kg/injection, schedule: Q01DX009 (ip), vehicle: Klucel (hydroxypropylcellulose) (HPC)); 95 % of control (dose: 50.0 mg/kg/injection, schedule: Q01DX009 (ip), vehicle: Klucel (hydroxypropylcellulose) (HPC)); 109 % of control under setting [1]; 100 % of control under setting [2]; 100 % of control under setting [4].
Turning to `CCCCCC(C)C(=O)CCCC` (stereo not given) (tested in a mixture with another compound), the T/C is 104 % of control under setting [3], 104 % of control under setting [11] and 100 % of control under setting [12].
In the case of `CNC(=S)N/N=C(/C)CCC/C(C)=N/NC(=S)NC`, the T/C reads like this: (dose: 6.25 mg/kg/injection, schedule: Q01DX009 (ip), vehicle: saline with Tween-80) 106 % of control; (dose: 12.5 mg/kg/injection, schedule: Q01DX009 (ip), vehicle: saline with Tween-80) 108 % of control; under setting [10], 99 % of control.
Regarding `O=C(O)c1ccc(Cl)cc1Nc1ccc(Cl)cc1`, the T/C runs as follows: under setting [14], 120 % of control; under setting [3], 100 % of control; under setting [11], 100 % of control.
Consider `O=C(O)c1cc(N=Nc2ccccc2)ccc1O`, for which the T/C was 104 % of control under setting [3] and 100 % of control under setting [11].
Regarding `COC1NC(=O)NC(=O)C1=[N+]=[N-]` (stereo not given), the T/C by setting is: (dose: 3.3 mg/kg/injection, schedule: Q01DX009 (ip), vehicle: saline with Tween-80) 170 % of control; (dose: 5.0 mg/kg/injection, schedule: Q01DX009 (ip), vehicle: saline with Tween-80) 175 % of control.
With `CCCCC#CC(=O)OC`, the T/C is 116 % of control under setting [10], 104 % of control under setting [7], 100 % of control under setting [8] and 114 % of control under setting [9].
With `O=[N+]([O-])c1ccc(S(=O)(=O)Cc2ccccc2)c2c1no[n+]2[O-]`, the T/C under setting [10] was 116 % of control and the T/C under setting [7] was 116 % of control.
